According to patent US20140045809A1, “CORROLES FOR NEUROPROTECTION AND NEURORESCUE” (priority 2008, published 2014):
“Also recorded” adds a separate entry of the source.

Legend:
[1] = SOD activity (catalytic decomposition of superoxide anion radical), cytochrome C assay; type: biochemical
Method: SOD activity (enzyme-like catalytic decomposition of superoxide anion radical) of the corroles 1C-Fe, 6C-Fe, 1C-Mn, 1C-Cu, 2C-Mn and 3C-Mn was examined via the cytochrome C assay. The catalytic rate constants for decomposition of peroxynitrite (PN) by the newly prepared iron corrole 6C-Fe and manganese corrole 3C-Mn were determined via stopped-flow kinetics as previously described for corroles 1C-Fe, 1C-Mn, and 2C-Mn (Mahammed and Gross, 2006; Gershman et al., 2007). These tests are performed in order to estimate how electronic and structural variables affect reactivity, which is a crucial factor for design of new complexes.

[2] = Peroxynitrite decomposition rates by manganese corroles (Example 2); type: biochemical; settings: 385 μM peroxynitrite, pH 7.4, 25° C., absorbance at 302 nm; Table 2
Method: The investigations were performed by examining the decay of 385 μM peroxynitrite at pH 7.4 and 25° C. in the presence and absence of various amounts of Mn corrole catalysts 2C-Mn, 2C′-Mn, 2C″-Mn, 3C-Mn and 4C-Mn. The differences between 2C-Mn, 2C′-Mn, and 2C″-Mn is in the identity of the 10-aryl group, which is C6F5, para-anisyl, and phenyl, respectively. The results (one example using 4C-Mn is shown in FIG. 1) were obtained by monitoring changes in absorbance at 302 nm, the λmax of peroxynitrite. The catalytic performances of five of the above compounds were tested; and the thus elucidated kcat values are presented in Table 2. Importantly, in sharp contrast with the corroles, none of the structurally similar manganese (III) porphyrin complexes affected the decomposition of peroxynitrite by any extent (not shown).

[3] = tested on: RIN-m cells; experiment: Protection of RIN-m beta cells against H2O2 toxicity (MTT); type: cell-based, rat; settings: H2O2 150 μM
Method: Two insulin-secreting beta cell lines, rat insulinoma (INS-1E) and RIN-m cells, were used to examine the protective effect of corrole 1C-Fe. The cells were cultured at 37° C., in a humid 5% CO2, 95% air environment in regular RPMI-1640 medium (Invitrogen) supplemented with 5% fetal calf serum (FCS).
After 2 days of culture, RIN-m cells (5×10^4 cells/well in 96-well plates) were treated with corrole 1C-Fe (1-50 μM) before addition of 35 μM of H2O2. Cell viability was evaluated by a colorimetric assay for mitochondrial function estimation using the MTT test as previously described (Gassen et al., 1998) and expressed as percentage of control.
RIN-m cells were grown as described in Example 5. After 3 days of culture, RIN-m cells (2.5×10^4 cells/well in 96-well plates) were treated with corroles 1C-Fe or 5C-Fe or porphyrin 1P-Fe (1 and 20 μM), added 30 min prior to treatment with 35 μM H2O2 and further incubated for 24 h. Cell injury was evaluated by MTT test. […] […].
Protective effect of iron(III) corrole complexes against H2O2-induced toxicity (150 μM) was compared to that of manganese(III) corroles and related porphyrin. […].

## O=S(=O)(O)c1cc2[n]3c1C(c1c(F)c(F)c(F)c(F)c1F)=C1C=CC4=[N+]1[Cu-]31[n]3c(cc(S(=O)(=O)O)c3-2)C(c2c(F)c(F)c(F)c(F)c2F)=c2ccc([n]21)=C4c1c(F)c(F)c(F)c(F)c1F (stereo not drawn) [1C-Cu, 2,17-bis(sulfonato)-5,10,15-tris(pentafluorophenyl)-corrolato copper(III)]
[1]
  IC50: 12 µM

## COc1ccc(C2=c3ccc4[n]3[Mn-]35[n]6c(ccc6-c6ccc([n]63)C=4c3cc[n+](C)cc3)C(c3cc[n+](C)cc3)=C3C=CC2=[N+]35)cc1 (stereo not drawn) [2C′-Mn]
[2]
  kcat, peroxynitrite decomposition rate: 77000 M⁻¹ s⁻¹

## C[n+]1ccc(C2=C3C=CC4=[N+]3[Mn-]35[n]6c2ccc6-c2ccc([n]23)C(c2cc[n+](C)cc2)=c2ccc([n]25)=C4c2ccccc2)cc1 (stereo not drawn) [2C″-Mn]
[2]
  kcat, peroxynitrite decomposition rate: 81000 M⁻¹ s⁻¹

## C[n+]1ccc(C2=C3C=CC4=[N+]3[Mn-]35[n]6c2ccc6C(c2c(F)c(F)c(F)c(F)c2F)=C2C=CC(=[N+]23)C(c2cc[n+](C)cc2)=c2ccc([n]25)=C4c2c(F)c(F)c(F)c(F)c2F)cc1.[I-].[I-] (stereo not drawn) [2P-Mn, 5,15-bis(N-methyl-4-pyridilium)-10,20-bis-(pentafluoro-phenyl)porphyrinato manganese(III) diiodide salt, reference compound]
[3]
  cytoprotective effect against H2O2-induced toxicity: totally inefficient; also recorded: inefficiency

## C[n+]1ccccc1C1=C2C=CC3=[N+]2[Mn-]24[n]5c1ccc5-c1ccc([n]12)C(c1cccc[n+]1C)=c1ccc([n]14)=C3c1c(F)c(F)c(F)c(F)c1F (stereo not drawn) [4C-Mn, 5,15-bis(N-methyl-2-pyridilium) 10-pentafluorophenyl corrolato manganese(III)]
[2]
  kcat, peroxynitrite decomposition rate: 160000 M⁻¹ s⁻¹

## COc1c(F)c(F)c(C2=C3C=CC4=[N+]3[Fe-]35[n]6c(cc(S(=O)(=O)O)c62)-c2c(S(=O)(=O)O)cc([n]23)C(c2c(F)c(F)c(OC)c(F)c2F)=c2ccc([n]25)=C4c2c(F)c(F)c(OC)c(F)c2F)c(F)c1F (stereo not drawn) [6C-Fe, 2,17-bis-sulfonato-5,10,15-tris(p-methoxy-tetra-fluorophenyl)iron(III) corrole]
[1]
  IC50: 1.18 µM
